Marks after values point to notes of the source that are not given here.
How the values were obtained:
[1] = molecular target: T1, human isomaltase (Homo sapiens, UniProt P14410); assay: Isomaltase inhibition in Caco-2/TC7 cell-free extract, isomaltose as substrate, HPAE-PAD; assay type: biochemical; conditions: for 15% inhibitory concentration (IC15) Isomaltase / 25% inhibitory concentration (IC25) Isomaltase: isomaltose; for percent inhibition of isomaltase at maximum concentration tested: maximum concentration: acarbose 200, EGCG 1500, quercetin 200, quercetagetin 50, kaempferol 40, galangin 25 µM
T1 construct: an in vitro assay using Caco-2/TC7 cell extracts containing sucrase, maltase and isomaltase was conducted; endogenous in cells; host or cells: Caco-2/TC7 (human colon adenocarcinoma), 21 days post-confluence, crude cell-free extract
Protocol: (§1) Disaccharides and monosaccharides were analyzed by HPAE-PAD on the Dionex™ Integrion™ HPIC™ system (Thermo Fisher Scientific). Separation of the carbohydrates was achieved on a CarboPac PA210 column (2 × 150 mm), preceded by a CarboPac PA210 Guard column (2 × 30 mm), with the column and compartment temperatures maintained at 30 °C and 20 °C, respectively. […] Detection was performed using a gold working electrode and AgCl reference electrode at pH ~ 12.0, with a collection rate of 2.00 Hz using the “Gold, Carbo, Quad” waveform. […] A wash injection of only H2O while following the same multistep eluent gradient was performed at the end of every batch (12–14 samples). All injections were performed in duplicate and peak identification was achieved by comparing retention times to the standards. Dionex™ Chromeleon™ 7 Chromatography Data System, version 7.2.9 (Thermo Fisher Scientific, Waltham, MA, USA), was used to process the chromatograms, ensuring peaks were suitably integrated before recording peak area. Sugars were quantified from peak areas using standard curves, with the standards prepared in the same buffer as the samples.
(§2) To mimic intestinal digestion, an in vitro assay using Caco-2/TC7 cell extracts containing sucrase, maltase and isomaltase was conducted. Frozen cells were thawed, 1 mL ice-cold SPB added and then passed through a 21-G needle 15–20 times. The lysate was centrifuged at 14,000× g, 10 min at 4 °C and the supernatant containing cell-free extract (CFE) collected. Total protein concentration in the CFEs was determined by Bradford assay, using the Pierce Coomassie Bradford reagent and BSA standards (Thermo Fisher Scientific, Waltham, MA, USA).
(§3) Assay mixtures, total volume 250 µL, containing CFE (final protein concentration at 0.1–0.35 mg/mL), with or without various concentrations of inhibitors/flavonoids, were prepared and kept on ice. The enzyme reaction was initiated by the addition of ≥20 mM sucrose, maltose or isomaltose and immediately incubating in a 37 °C water bath for 10 min (or various time points during method setup and validation). Following incubation, the enzyme activity was terminated by incubating in a 96 °C water bath for a further 10 min. A positive control without any added inhibitor/flavonoid was simultaneously tested in each batch, and negative controls without enzymes or substrates were also assayed to evaluate the stability of the inhibitors/compounds. Samples were prepared for HPAE-PAD analysis as described in Section 2.3. Specific enzyme activities were determined (U/mg CFE protein) and expressed as a percentage of control enzyme activities accordingly.
(§4) Controls (CFE and substrate only) were prepared by replacing the volume of inhibitor with SPB. […] Estimation of inhibition values were determined in GraphPad Prism and the percentage of inhibition of the sample was calculated following Equation (7) below, where SA = specific activity:(7) Inhibition %=SAcontrol − SAsample/SAcontrol×100
(§5) Enzyme assays were performed at least once for CFEs from biological triplicates, with duplicate injections of each analyzed by HPAE-PAD. MS Excel (Microsoft, Redmond, WA, USA) was used for data processing and analysis. Final inhibition values were expressed as the percentage of control activity (%). The IC15, IC25 and IC50 values were calculated based on the plots created using GraphPad, using the dose-response inhibition (log (inhibitor) vs. normalized response—variable slope) model. The same software was used to determine the apparent Km and Vmax values under the enzyme–kinetic inhibition model, and for statistical analyses using non-parametric multiple comparisons tests. A difference was considered significant at p < 0.05 for all comparisons. All data are expressed as the mean ± SD or SEM, specified accordingly.

[2] = test system: human maltase; assay: Maltase inhibition in Caco-2/TC7 cell-free extract, maltose as substrate, HPAE-PAD; assay type: biochemical; conditions: for 15% inhibitory concentration (IC15) Maltase / 25% inhibitory concentration (IC25) Maltase / IC50: Caco-2/TC7 CFE, mean ± SEM, n = 3; for 15% inhibitory concentration (IC15) Maltase / 25% inhibitory concentration (IC25) Maltase: maltose; for percent inhibition of maltase at maximum concentration tested: maximum concentration: acarbose 200, EGCG 1500, quercetin 200, quercetagetin 50, kaempferol 40, galangin 25 µM; for IC50: 20 mM maltose, 10 min 37 °C, read-out: 50% inhibitory concentration (IC50) Maltase
Protocol: Disaccharides and monosaccharides were analyzed by HPAE-PAD on the Dionex™ Integrion™ HPIC™ system (Thermo Fisher Scientific). Separation of the carbohydrates was achieved on a CarboPac PA210 column (2 × 150 mm), preceded by a CarboPac PA210 Guard column (2 × 30 mm), with the column and compartment temperatures maintained at 30 °C and 20 °C, respectively. Eluent was generated using a Dionex™ EGC 500 KOH eluent generator cartridge with Dionex™ continuously regenerated-anion trap column 600, with eluent concentration following a multistep gradient: 12 mM for 12 min, 100 mM for 8 min and 12 mM for 12 min, at a flow rate of 0.2 mL/min and with a sample injection volume of 2.5 μL. Detection was performed using a gold working electrode and AgCl reference electrode at pH ~ 12.0, with a collection rate of 2.00 Hz using the “Gold, Carbo, Quad” waveform. The total run time per sample was 32 min, with 3 min allowed between analyses for sample injection by autosampler. A wash injection of only H2O while following the same multistep eluent gradient was performed at the end of every batch (12–14 samples). All injections were performed in duplicate and peak identification was achieved by comparing retention times to the standards. Dionex™ Chromeleon™ 7 Chromatography Data System, version 7.2.9 (Thermo Fisher Scientific, Waltham, MA, USA), was used to process the chromatograms, ensuring peaks were suitably integrated before recording peak area. Sugars were quantified from peak areas using standard curves, with the standards prepared in the same buffer as the samples.
as §2, §3
as §4, with “SPB. Activities of sucrase, maltase and isomaltase were considered as 100% (or 0% inhibition) in the absence of an inhibitor.” for “SPB.”
Enzyme assays were performed at least once for CFEs from biological triplicates, with duplicate injections of each analyzed by HPAE-PAD. MS Excel (Microsoft, Redmond, WA, USA) was used for data processing and analysis. Final inhibition values were expressed as the percentage of control activity (%). […]

[3] = molecular target: T2, human sucrase (Homo sapiens, UniProt P14410); assay: Sucrase inhibition in Caco-2/TC7 cell-free extract, sucrose as substrate, HPAE-PAD; assay type: biochemical; conditions: for 15% inhibitory concentration (IC15) Sucrase / 25% inhibitory concentration (IC25) Sucrase / IC50: Caco-2/TC7 CFE, mean ± SEM, n = 3; for 15% inhibitory concentration (IC15) Sucrase / 25% inhibitory concentration (IC25) Sucrase: sucrose; for percent inhibition of sucrase at maximum concentration tested: maximum concentration: acarbose 200, EGCG 1500, quercetin 200, quercetagetin 50, kaempferol 40, galangin 25 µM; for IC50: 20 mM sucrose, 10 min 37 °C, read-out: 50% inhibitory concentration (IC50) Sucrase
T2 construct: an in vitro assay using Caco-2/TC7 cell extracts containing sucrase, maltase and isomaltase was conducted; endogenous in cells; host or cells: Caco-2/TC7 (human colon adenocarcinoma), 21 days post-confluence, crude cell-free extract
Protocol: as §1, §2, §3, §4, §5

[4] = test system: yeast α-glucosidase; set-up: method as in PMID 26212963, PMID 30245236, PMID 31007116, PMID 23137344; conditions: cited from earlier work
[5] = molecular target: human maltase expressed in yeast; set-up: method as in PMID 32218677; conditions: cited from earlier work
[6] = test system: human maltase expressed in yeast; assay: Inhibition of human maltase expressed in yeast (literature); assay type: biochemical; conditions: compared with this paper and ref 30
[7] = molecular target: rat sucrase; conditions: cited from earlier work
[8] = set-up: method as in PMID 9414116; conditions: cited from earlier work
[9] = molecular target: rat maltase; conditions: cited from earlier work
[10] = Caco-2/TC7 CFE, mean ± SEM, n = 3

T2 sequence (P14410 whole entry): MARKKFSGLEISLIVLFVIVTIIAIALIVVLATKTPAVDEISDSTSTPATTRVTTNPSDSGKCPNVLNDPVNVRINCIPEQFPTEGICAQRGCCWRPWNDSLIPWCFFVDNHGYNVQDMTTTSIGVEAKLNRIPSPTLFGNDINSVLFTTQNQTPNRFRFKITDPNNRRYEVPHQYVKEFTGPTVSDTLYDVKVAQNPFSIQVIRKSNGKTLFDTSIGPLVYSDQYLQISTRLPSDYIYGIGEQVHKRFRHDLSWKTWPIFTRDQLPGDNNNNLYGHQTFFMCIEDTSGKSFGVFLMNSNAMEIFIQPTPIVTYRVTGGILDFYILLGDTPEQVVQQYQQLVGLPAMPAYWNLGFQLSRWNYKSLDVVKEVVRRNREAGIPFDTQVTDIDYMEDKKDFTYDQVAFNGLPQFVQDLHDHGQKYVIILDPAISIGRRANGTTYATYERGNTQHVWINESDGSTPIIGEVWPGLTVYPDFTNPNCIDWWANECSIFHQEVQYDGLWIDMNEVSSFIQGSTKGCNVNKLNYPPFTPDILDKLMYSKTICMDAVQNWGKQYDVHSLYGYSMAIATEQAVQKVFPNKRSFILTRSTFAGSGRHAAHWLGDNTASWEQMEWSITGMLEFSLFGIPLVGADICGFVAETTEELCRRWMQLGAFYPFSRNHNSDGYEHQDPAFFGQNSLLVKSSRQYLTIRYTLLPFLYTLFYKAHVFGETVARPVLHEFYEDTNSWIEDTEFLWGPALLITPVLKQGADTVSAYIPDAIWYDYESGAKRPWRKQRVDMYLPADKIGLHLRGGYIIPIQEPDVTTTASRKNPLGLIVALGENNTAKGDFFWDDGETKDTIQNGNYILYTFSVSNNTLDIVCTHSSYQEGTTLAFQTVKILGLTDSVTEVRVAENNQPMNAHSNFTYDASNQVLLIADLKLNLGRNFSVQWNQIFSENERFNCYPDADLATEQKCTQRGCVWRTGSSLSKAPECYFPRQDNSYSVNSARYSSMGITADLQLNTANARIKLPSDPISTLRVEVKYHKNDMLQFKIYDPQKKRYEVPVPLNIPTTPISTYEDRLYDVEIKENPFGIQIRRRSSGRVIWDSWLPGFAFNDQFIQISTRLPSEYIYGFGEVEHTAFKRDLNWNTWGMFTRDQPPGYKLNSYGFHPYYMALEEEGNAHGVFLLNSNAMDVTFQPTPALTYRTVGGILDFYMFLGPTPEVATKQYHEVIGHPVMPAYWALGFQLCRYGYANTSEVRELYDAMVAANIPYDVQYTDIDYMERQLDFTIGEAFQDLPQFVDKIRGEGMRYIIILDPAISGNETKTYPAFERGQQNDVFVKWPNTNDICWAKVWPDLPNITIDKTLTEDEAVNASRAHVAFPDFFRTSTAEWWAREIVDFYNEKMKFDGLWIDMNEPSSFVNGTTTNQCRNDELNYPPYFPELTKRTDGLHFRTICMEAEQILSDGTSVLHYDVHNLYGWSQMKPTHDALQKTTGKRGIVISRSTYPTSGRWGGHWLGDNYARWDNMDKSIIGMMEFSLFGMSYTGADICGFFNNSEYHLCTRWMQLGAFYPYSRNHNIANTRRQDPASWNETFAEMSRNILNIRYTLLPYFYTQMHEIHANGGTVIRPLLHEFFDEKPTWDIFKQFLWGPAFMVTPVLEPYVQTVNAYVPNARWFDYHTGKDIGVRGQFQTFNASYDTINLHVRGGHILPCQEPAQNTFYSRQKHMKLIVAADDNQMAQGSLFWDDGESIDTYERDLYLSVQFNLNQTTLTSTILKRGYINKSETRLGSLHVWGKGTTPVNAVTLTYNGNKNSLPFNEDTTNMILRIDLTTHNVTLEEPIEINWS
T1 sequence (P14410 whole entry): as above

## O=c1c(O)c(-c2ccccc2)oc2cc(O)cc(O)c12 [Galangin, galangin]
[1]; [10]
  15% inhibitory concentration (IC15) Isomaltase: 9.3 ± 1.2 ^a µM
[1]; read-out: percent inhibition of isomaltase at maximum concentration tested
  inhibition at 25 µM: 22%
[2]
  15% inhibitory concentration (IC15) Maltase: 8.7 ± 1.1 ^abc µM
  25% inhibitory concentration (IC25) Maltase: 17.6 ± 2.2 ^a µM
  percent inhibition of maltase at maximum concentration tested: ND (22%)
[3]
  15% inhibitory concentration (IC15) Sucrase: 12.7 ± 2.1 ^c µM
  25% inhibitory concentration (IC25) Sucrase: 20.8 ± 5.5 ^c µM
[3]; read-out: percent inhibition of sucrase at maximum concentration tested
  inhibition at 25 µM: 33%

## O=c1c(O)c(-c2ccc(O)cc2)oc2cc(O)cc(O)c12 [Kaempferol, kaempferol]
[1]; [10]
  15% inhibitory concentration (IC15) Isomaltase: 12.5 ± 3.7 ^a µM
  25% inhibitory concentration (IC25) Isomaltase: 34.0 ± 8.4 ^a µM
[1]
  percent inhibition of isomaltase at maximum concentration tested: ND (27%)
[1]; listed as kaempferol
  percent inhibition of isomaltase at maximum concentration tested: < 32%
[2]
  15% inhibitory concentration (IC15) Maltase: 19.0 ± 5.5 ^bc µM
  percent inhibition of maltase at maximum concentration tested: ND (25%)
[2]; listed as kaempferol
  percent inhibition of maltase at maximum concentration tested: < 32%
[3]
  15% inhibitory concentration (IC15) Sucrase: 14.2 ± 3.7 ^c µM
  25% inhibitory concentration (IC25) Sucrase: 30.3 ± 8.2 ^c µM
  percent inhibition of sucrase at maximum concentration tested: ND (31%)
[3]; listed as kaempferol
  percent inhibition of sucrase at maximum concentration tested: < 32%
[4]
  yeast α-glucosidase inhibition: 95%

## O=C(O[C@@H]1Cc2c(O)cc(O)cc2O[C@@H]1c1cc(O)c(O)c(O)c1)c1cc(O)c(O)c(O)c1 [EGCG, (−)-epigallocatechin-3-gallate, reference compound]
[1]; Caco-2/TC7 CFE, 20 mM isomaltose, 10 min 37 °C, mean ± SEM, n = 3, read-out: 50% inhibitory concentration (IC50) Isomaltase
  IC50: 462 ± 60.3 µM
[1]; [10]
  15% inhibitory concentration (IC15) Isomaltase: 118.6 ± 18.0 ^b µM
  25% inhibitory concentration (IC25) Isomaltase: 241.9 ± 40.4 ^b µM
[1]
  percent inhibition of isomaltase at maximum concentration tested: 71%
[2]
  IC50: 186 ± 40.4 µM
  15% inhibitory concentration (IC15) Maltase: 21.7 ± 4.5 ^c µM
  25% inhibitory concentration (IC25) Maltase: 43.8 ± 9.2 ^b µM
[3]
  IC50: 175 ± 60.1 µM
  15% inhibitory concentration (IC15) Sucrase: 41.2 ± 6.0 ^d µM
  25% inhibitory concentration (IC25) Sucrase: 72.9 ± 10.3 ^d µM
  percent inhibition of sucrase at maximum concentration tested: 100%
[5]
  IC50: 20 µM
[6]
  fold lower IC50 (human maltase expressed in yeast) than with Caco-2/TC7 as the enzyme origin: 8–10 fold

## O=c1c(O)c(-c2ccc(O)c(O)c2)oc2cc(O)cc(O)c12 [Quercetin, quercetin]
[1]; [10]
  15% inhibitory concentration (IC15) Isomaltase: 104.0 ± 18.8 ^b µM
[1]
  percent inhibition of isomaltase at maximum concentration tested: ND (18%)
[2]
  15% inhibitory concentration (IC15) Maltase: 43.0 ± 3.1 ^d µM
  25% inhibitory concentration (IC25) Maltase: 82.0 ± 4.6 ^c µM
[3]
  IC50: 162 ± 13.6 µM
  15% inhibitory concentration (IC15) Sucrase: 40.5 ± 5.1 ^d µM
  25% inhibitory concentration (IC25) Sucrase: 69.5 ± 8.2 ^d µM
  percent inhibition of sucrase at maximum concentration tested: > 50%
[7]
  IC50: > 400 µM
[8]
  half-life: ~ 24 h
[9]
  IC50: 281 µM

## C[C@H]1O[C@H](O[C@H]2[C@H](O)[C@@H](O)[C@@H](O[C@H]3[C@H](O)[C@@H](O)C(O)O[C@@H]3CO)O[C@@H]2CO)[C@H](O)[C@@H](O)[C@@H]1N[C@H]1C=C(CO)[C@@H](O)[C@H](O)[C@H]1O (stereo partly drawn) [Acarbose, acarbose, reference compound]
[1]; [10]
  15% inhibitory concentration (IC15) Isomaltase: 7.8 ± 0.7 ^a µM
  25% inhibitory concentration (IC25) Isomaltase: 14.4 ± 1.1 ^a µM
[1]
  percent inhibition of isomaltase at maximum concentration tested: 96%
[2]
  IC50: 13.9 ± 2.3 µM
  15% inhibitory concentration (IC15) Maltase: 2.4 ± 0.4 ^a µM
  25% inhibitory concentration (IC25) Maltase: 4.6 ± 0.8 ^a µM
  percent inhibition of maltase at maximum concentration tested: more than 50%
[3]
  15% inhibitory concentration (IC15) Sucrase: 0.32 ± 0.05 ^a µM
  25% inhibitory concentration (IC25) Sucrase: 0.60 ± 0.09 ^a µM

## O=c1c(O)c(-c2ccc(O)c(O)c2)oc2cc(O)c(O)c(O)c12 [Quercetagetin, quercetagetin]
[1]; [10]
  15% inhibitory concentration (IC15) Isomaltase: 5.9 ± 1.9 ^a µM
  25% inhibitory concentration (IC25) Isomaltase: 20.3 ± 7.3 ^a µM
[1]
  percent inhibition of isomaltase at maximum concentration tested: ND (29%)
[2]
  15% inhibitory concentration (IC15) Maltase: 3.4 ± 0.9 ^ab µM
  25% inhibitory concentration (IC25) Maltase: 6.7 ± 1.5 ^a µM
  percent inhibition of maltase at maximum concentration tested: ND (48%)
[3]
  IC50: 21.7 ± 5.3 µM
  15% inhibitory concentration (IC15) Sucrase: 3.5 ± 1.1 ^b µM
  25% inhibitory concentration (IC25) Sucrase: 6.6 ± 1.8 ^b µM
  percent inhibition of sucrase at maximum concentration tested: > 50%

From article PMC8392382, “Flavonoids as Human Intestinal α-Glucosidase Inhibitors” (Foods, 2021)
